Measurements from PMC12469672, “Effects on Oral Squamous Carcinoma Cell Lines and Their Mechanisms of Pyrazole N-Aryl Sulfonate: A Novel Class of Selective Cyclooxygenase-2 Inhibitors” (International Journal of Molecular Sciences, 2025).
Where two headings read alike, the source gives them in different places.

Assays:
[1] = tested on: CAL-27 cells; test: CCK-8 proliferation assay, CAL-27; type: cell-based; details: Homo sapiens
Method: (§1) The OSCC cell lines CAL-27 (STCC12901P, Servicebio, Wuhan, China) and SAS (CC0706, Cellcook, Guangzhou, China) were cultured in Dulbecco Modified Eagle Medium F12 (DMEM/F12) (G4610-500ML, Servicebio, Wuhan, China) supplemented with 10% fetal bovine serum (FBS) (AB-FBS-DIA1050, ABW, Shanghai, China) and 100 U/mL penicillin-streptomycin-gentamicin solution (G4014-100ML, Servicebio, Wuhan, China). VERO cells were cultured in DMEM (G4524-500ML, Servicebio, Wuhan, China) supplemented with 10% FBS (AB-FBS-DIA1050, ABW, China) and 100 U/mL penicillin–streptomycin–gentamicin solution (G4014-100ML, Servicebio, Wuhan, China). […] were maintained at 37 °C in a humidified 5% CO2 incubator. For experiments, 1 × 10^6 cells were seeded per T-25 culture flask.
(§2) CAL-27, SAS, and VERO cells were seeded in 96-well plates at a density of 5000 cells per well. At specified time intervals, 10 μL of Cell Counting Kit-8 (CCK-8) reagent (K1018, Apexbio, Boston, MA, USA) was added to each well and incubated for 2 h. Absorbance at 450 nm was measured using a microplate reader (Infinite M200 Pro, Tecan Group, Männedorf, Switzerland).

[2] = tested on: SAS cells; test: CCK-8 proliferation assay, SAS; type: cell-based
Method: as §1, §2

[3] = tested on: VERO cells; test: CCK-8 cytotoxicity assay, VERO; type: cell-based, African green monkey; details: Chlorocebus sabaeus; VERO, CCK-8, 24 h
Method: as §1, §2

[4] = tested on: COX-2 mRNA in SAS cells; test: RT-qPCR COX-2 mRNA, SAS; type: cell-based; details: working concentrations, 24 h, vs control
Method: (§3) Equal amounts of RNA were reverse transcribed into cDNA using the Reverse Transcription Kit (AG11705, Accurate Biology, Guangzhou, China) following the manufacturer’s instructions. Quantitative PCR was performed on a QIAGEN Rotor-GeneQ system (9001862, QIAGEN, Hilden, Germany) with SYBR Green Pro Taq HS Premix II (AG11702, Accurate Biology, China).
(§4) The PCR protocol consisted of initial denaturation at 95 °C for 30 s, followed by 40 cycles of 95 °C for 5 s and 60 °C for 30 s. All reactions were performed in triplicate, with melting curve analysis confirming amplification specificity. The expression of the target genes was normalized to GAPDH, and fold changes were calculated in the manner of the 2^−ΔΔCT .

[5] = tested on: COX-2 in SAS cells; test: ELISA COX-2, SAS; type: cell-based; details: working concentrations, vs control (compounds also vs CXB)
Method: With the aim of determining COX-2 concentrations in OSCC cell lines after treatment at the predefined working concentrations, we used a specialized ELISA kit (F0564-A, FANKEW, Shanghai, China), following the manufacturer’s instructions. Briefly, 40 μL of the sample dilution and 10 μL of the sample (sample final dilution is 5-fold) were added to testing sample wells and incubated for 30 min at 37 °C. After that, discard the liquid and wash the plate using washing buffer. Repeat 5 times, drying by patting. Subsequently, samples were incubated with 50 μL of HRP-conjugate reagent in each well for 30 min at 37 °C. Wash 5 times, then add Chromogen Solution A and B and incubate for 10 min at 37 °C. Lastly, 50 μL of stop solution was added to each well to stop the reaction, and the sample absorbance was measured using a microplate reader at 450 nm after adding stop solution within 15 min.

[6] = tested on: MMP2 mRNA in CAL-27 cells; test: RT-qPCR MMP2 mRNA, CAL-27; type: cell-based; details: CAL-27, 24 h, vs control
Method: as §3, §4

[7] = tested on: MMP9 mRNA in CAL-27 cells; test: RT-qPCR MMP9 mRNA, CAL-27; type: cell-based; details: CAL-27, 24 h, vs control
Method: as §3, §4

[8] = tested on: MMP2 mRNA in SAS cells; test: RT-qPCR MMP2 mRNA, SAS; type: cell-based; details: vs control
Method: as §3, §4

[9] = tested on: CAL-27 cells; test: Hoechst 33342 staining, CAL-27; type: cell-based; details: CAL-27, 24 h, working concentrations, vs NC
Method: (§5) After 24 h drug treatment at the predefined working concentrations, CAL-27 and SAS cells were dyed with 300 μL Hoechst 33342 staining (C1022, Beyotime, China) in the dark at 37 °C for 10 min. Then, the residual Hoechst 33342 staining was washed 3 times with 1 × phosphate-buffered saline (PBS, G4250-500ML, Servicebio, China). The images were then immediately examined under an inverted fluorescence microscope (CX23, Olympus, Japan).

[10] = tested on: SAS cells; test: Hoechst 33342 staining, SAS; type: cell-based; details: 24 h, working concentrations, vs NC
Method: as §5

[11] = tested on: CAL-27 cells; test: Annexin V-FITC/PI flow cytometry apoptosis, CAL-27; type: cell-based; details: CAL-27, 24 h, vs control
Method: (§6) After 24 h drug treatment at the predefined working concentrations, CAL-27 and SAS cells were trypsinized, centrifuged (200× g, 5 min, RT), and washed twice with 1 mL ice-cold PBS. Cell aliquots ((5–10) × 10^4 cells) were resuspended in 195 μL Annexin V-FITC binding buffer, followed by sequential addition of 5 μL Annexin V-FITC and 10 μL propidium iodide (PI) (BMS500FI-100, Thermo Fisher Scientific, Wien, Austria) with gentle mixing. After 10–20 min of incubation in darkness (20–25 °C) with intermittent resuspension (2–3 times), samples were placed on ice and analyzed within 1 h using a flow cytometer (CytExpert software [Version 2.4.0.28, Beckman Coulter, Brea, CA, USA]). Triplicate independent experiments were performed for statistical analysis.

[12] = tested on: SAS cells; test: Annexin V-FITC/PI flow cytometry apoptosis, SAS; type: cell-based; details: 24 h, vs control
Method: as §6

Cc1ccc(-c2cc(C(F)(F)F)nn2-c2ccc(S(N)(=O)=O)cc2)cc1 [CXB, celecoxib, reference compound]
IC50 ([1]; CAL-27, 24 h, read-out: IC50 (range), CAL-27, CCK-8, 24 h, given as a range): 52.4 to 61.9 µM | IC50 ([1]; CAL-27, CAL-27, CCK-8, read-out: IC50 CAL-27): 57 µM | IC50 ([2]; 24 h, read-out: IC50 (range)): 53.9 to 61.5 µM | IC50 ([2]; SAS, CCK-8, read-out: IC50 SAS): 57.6 µM | IC50 [3]: 243 µM | COX-2 mRNA level [4]: marked upregulation | COX-2 level (ELISA) [5]: no marked difference | MMP2 mRNA expression [6]: even lower | MMP9 mRNA expression [7]: even lower | MMP2 mRNA expression [8]: markedly suppressed | apoptotic cells (Hoechst 33342, fluorescence microscopy) [9]: significant increase | apoptotic cells (Hoechst 33342, fluorescence microscopy) [10]: significant increase | total apoptotic cell population (early and late apoptosis) [11]: comparable pro-apoptotic efficacy | total apoptotic cell population (early and late apoptosis) [12]: comparable pro-apoptotic efficacy
